The source of these data is ChEMBL document CHEMBL1130311, “Design and synthesis of a possible mimic of a thrombin-binding DNA aptamer” (Bioorg Med Chem Lett, 1997).

For this assay, the target named is Prothrombin (Homo sapiens) (UniProt P00734). The assay can be described thus: Tested for thrombin inhibitory activity by fibrinogen dependent thrombin assay; Inactive.

The source made the active and inactive calls. No cut-off for these calls is given here.

On to `Cc1cn([C@H]2C[C@@H]3OP(=O)(O)OC[C@H]4O[C@@H](n5cnc6c(O)nc(N)nc65)C[C@@H]4OP(=O)(O)OC[C@H]4O[C@@H](C[C@@H]4OP(=O)(O)OC(C)C)n4cc(c(=O)[nH]c4=O)COCOC[C@H]3O2)c(=O)[nH]c1=O`, for which the outcome was inactive.
